These results are taken from patent publication US20090215845A1, “Fungicidal mixtures” (priority 2005, published 2009).

The subject of test [1] is Coriolus versicolor. Description: MIC, radial hyphal growth on malt extract peptone nutrient agar. It is filed as cell-based. The note with it: Trametes versicolor. The method, then: (§1) The synergism was then determined using the method described by Kull et al. (F. C. Kull, P. C. Eismann, H. D. Sylvestrowicz, R. L. Mayer, Applied Microbiology 9, 538 to 541, 1961). Here, the following relationships apply:
(§2) Qa=concentration of substance A which corresponds to the MIC
(§3) Qb=concentration of substance B which corresponds to the MIC
(§4) QA=concentration of substance A in the concentration of A/B which suppresses microbial growth
(§5) QB=concentration of substance B in the concentration of A/B which suppresses microbial growth
(§6) SI=1 means the activities are additive
Various concentrations of prochloraz (A), tebuconazole (B) and mixtures (AB) of the two active compounds mentioned were tested against the wood-destroying Basidiomycetes Coriolus versicolor. Mycelium pieces were punched out of a colony of the wood-destroying organism and incubated at 26° C. on a nutrient agar which contained malt extract peptone. The radial growth of the hypha with and without added active compound was then compared. The minimum inhibitory concentration (MIC) stated below is the lowest concentration of active compound at which the radial growth is suppressed completely.

For test [2], the system named is blueing fungi. Particulars: J. A. Drysdale et al., New Zealand Journal of Forestry Science 1982; cited from earlier work.
For test [3], the system named is Trichurus spiralis. In words: MIC on nutrient agar media against soft-rot pathogen. It is filed as cell-based. How it is done: as §1, §2, §3, §4, §5, §6
Various concentrations of prochloraz (A), tebuconazole (B) and mixtures of the two active compounds mentioned (AB) were tested against the soft-rot pathogen Trichurus spiralis on nutrient agar media. The minimum inhibitory concentration (MIC) refers to the value of the active compound or the active compound mixture in question where no growth could be observed.

In test [4] the test system is microorganisms in biologically active soil. In words: Soil burial of treated cotton sailcloth (DIN ENV 807), tear resistance. The note with it: cloth drenched with 800 ppm single active compound in ethanol; 4 weeks in biologically active soil. The method, then:
Untreated cotton sailcloth consisting of cellulose (500 g/m^2) was drenched with a solution of 800 ppm of prochloraz (A) and 800 ppm of tebuconazole (B) and a mixture (AB) comprising 200 ppm of prochloraz and 200 ppm of tebuconazole in ethanol. The samples were dried at 23° C. and 50% relative atmospheric humidity for 7 days and incorporated into biologically active soil according to DIN ENV 807. After 4 weeks, tear resistance of the cotton cloth was determined as a measure for the protection against destruction by microorganisms achieved by the active compounds.

Like-named read-outs stand apart in the source and are kept apart here.

A word on the MIC: it is the least concentration at which growth counts as inhibited. On to `CCCN(CCOc1c(Cl)cc(Cl)cc1Cl)C(=O)n1ccnc1` [A, N-propyl-N-[2-(2,4,6-trichlorophenoxy)ethyl]imidazole-1-carboxamide], for which the MIC in test [1] came out at 6 µg/mL; in test [3], 5 µg/mL. Also, in test [2], the “activity against blueing fungi” value is given as “insufficiently active”. Also, the “tear resistance of the cotton cloth” value in test [4] is “easy to tear”.
In the case of `CC(C)(C)C(O)(CCc1ccc(Cl)cc1)Cn1cncn1` (stereo not shown) [B, tebuconazole], the MIC in test [1] (Coriolus versicolor, 26° C., malt extract peptone agar, lowest concentration at which radial growth is suppressed completely, read-out: MIC) was 0.3 µg/mL; in test [3] (nutrient agar, concentration where no growth could be observed, read-out: MIC), 200 µg/mL. In addition, the “tear resistance of the cotton cloth” value in test [4] is given as “easy to tear”.
